System: Nucleic Acid
Test: Intrinsic binding constant in calf thymus DNA
Assay type: nucleic-acid assay, Bos taurus

SMILES | Kb
CNc1c2ccccc2nc2ccccc12 | 110000 M⁻¹
CNC(=S)N(C)CCNc1c2ccccc2nc2ccccc12 | 1500000 M⁻¹

Reference: ChEMBL document CHEMBL1136618, “Bis(acridinylthiourea)platinum(II) complexes: synthesis, DNA affinity, and biological activity in glioblastoma cells” (Bioorg Med Chem Lett, 2003)
